Laboratory results from ChEMBL document CHEMBL1158325, “Norditerpenoids and diterpenoids from Salvia multicaulis with antituberculous activity” (1997).
In brackets after ≈: the same amount, converted by molar mass. Activity calls are given as the source filed them. No cut-off for these calls is given here.

Experiments:
Format in all cases: functional
Klebsiella pneumoniae [1] = experiment: Antibacterial activity against Klebsiella pneumoniae ATCC 4352 by tube dilution method
Streptococcus [2] = experiment: Antibacterial activity against beta-haemolyticus Streptococcus isolate by tube dilution method
Staphylococcus aureus [3] = experiment: Antibacterial activity against Staphylococcus aureus ATCC 6538 by disk diffusion method
Klebsiella pneumoniae [4] = experiment: Antibacterial activity against Klebsiella pneumoniae ATCC 4352 by disk diffusion method
Pseudomonas aeruginosa [5] = experiment: Antibacterial activity against Pseudomonas aeruginosa ATCC 9027 by disk diffusion method
Escherichia coli [6] = experiment: Antibacterial activity against Escherichia coli ATCC 8739 by disk diffusion method
[7] = tested on: Mycobacterium tuberculosis; experiment: Antitubercular activity against Mycobacterium tuberculosis H37Rv after 21 days by broth microdilution method; conditions: 504 h
Pseudomonas aeruginosa [8] = experiment: Antibacterial activity against Pseudomonas aeruginosa ATCC 9027 by tube dilution method
Proteus mirabilis [9] = experiment: Antibacterial activity against Proteus mirabilis ATCC 14153 by disk diffusion method
Enterococcus faecalis [10] = experiment: Antibacterial activity against Enterococcus faecalis ATCC 29212 by disk diffusion method
Streptococcus [11] = experiment: Antibacterial activity against beta-haemolyticus Streptococcus isolate by disk diffusion method
Escherichia coli [12] = experiment: Antibacterial activity against Escherichia coli ATCC 8739 by tube dilution method
Proteus mirabilis [13] = experiment: Antibacterial activity against Proteus mirabilis ATCC 14153 by tube dilution method
Staphylococcus aureus [14] = experiment: Antibacterial activity against Staphylococcus aureus ATCC 6538 by tube dilution method
Enterococcus faecalis [15] = experiment: Antibacterial activity against Enterococcus faecalis ATCC 29212 by tube dilution method

For `Cc1ccc2c(ccc3cc(C(C)C)c(O)cc32)c1C`, which MIC (Klebsiella pneumoniae [1]) is on record?
The MIC was 15.6 µg/mL (≈ 59 µM).

And the MIC (Streptococcus [2])?
The MIC was 2 µg/mL (≈ 7.57 µM).

What about the Activity (Staphylococcus aureus [3]) of the same molecule?
The Activity was “inactive”.

What about the “inhibition zone (IZ)” value (Klebsiella pneumoniae [4]) of the same molecule?
Its value is over 7 mm.

And the “inhibition zone (IZ)” value (Pseudomonas aeruginosa [5])?
Its value is over 7 mm.

What about the Activity (Escherichia coli [6]) of the same molecule?
Its Activity is “inactive”.

And the MIC [7]?
Its MIC is 0.46 µg/mL (≈ 1.74 µM).

And the MIC (Pseudomonas aeruginosa [8])?
The MIC was 15.6 µg/mL (≈ 59 µM).

What about the Activity (Proteus mirabilis [9]) of the same molecule?
Its Activity is “inactive”.

And the Activity (Enterococcus faecalis [10])?
Its Activity is “inactive”.

What about the “inhibition zone (IZ)” value (Streptococcus [11]) of the same molecule?
The value was over 7 mm.

Which MIC [7] does the source give for `COC1=C(C(C)C)C(=O)C2=C(C1=O)[C@@]1(C)CCCC(C)(C)C1=C[C@H]2O` here?
The MIC was 1.2 µg/mL (≈ 3.48 µM).

How did the MIC (Klebsiella pneumoniae [1]) turn out when `COC1=C(C(C)C)C(=O)C2=C(C1=O)[C@@]1(C)CCCC(C)(C)C1=C[C@H]2OC(C)=O` was run?
The MIC was 7.2 µg/mL (≈ 18.6 µM).

And the Activity (Staphylococcus aureus [3])?
The Activity was “inactive”.

What about the “inhibition zone (IZ)” value (Klebsiella pneumoniae [4]) of the same molecule?
The value was over 7 mm.

And the Activity (Pseudomonas aeruginosa [5])?
Its Activity is “inactive”.

What about the Activity (Escherichia coli [6]) of the same molecule?
The Activity was “inactive”.

What about the MIC [7] of the same molecule?
Its MIC is 0.89 µg/mL (≈ 2.3 µM).

And the Activity (Proteus mirabilis [9])?
Its Activity is “inactive”.

And the Activity (Enterococcus faecalis [10])?
Its Activity is “inactive”.

And the Activity (Streptococcus [11])?
Its Activity is “inactive”.

For `Nc1ccc(C(=O)O)c(O)c1` [AMINOSALICYLIC ACID], which MIC [7] is on record?
Its MIC is 5 µg/mL (≈ 32.7 µM).

For `Cc1c(O)cc2c3c(ccc2c1C)C=C(C(C)C)C(=O)C3=O` [DEMETHYLMULTIORTHOQUINONE], which Activity (Staphylococcus aureus [3]) is on record?
The Activity was “inactive”.

What about the MIC (Escherichia coli [12]) of the same molecule?
The MIC was 4.6 µg/mL (≈ 15.6 µM).

And the Activity (Klebsiella pneumoniae [4])?
Its Activity is “inactive”.

And the Activity (Pseudomonas aeruginosa [5])?
Its Activity is “inactive”.

And the “inhibition zone (IZ)” value (Escherichia coli [6])?
Its value is over 7 mm.

What about the MIC [7] of the same molecule?
Its MIC is 1.2 µg/mL (≈ 4.08 µM).

And the Activity (Proteus mirabilis [9])?
Its Activity is “inactive”.

And the Activity (Enterococcus faecalis [10])?
The Activity was “inactive”.

And the Activity (Streptococcus [11])?
The Activity was “inactive”.

With `CC[C@@H](CO)NCCN[C@@H](CC)CO` [ETHAMBUTOL] as the molecule, how does the MIC [7] read?
The MIC was 5 µg/mL (≈ 24.5 µM).

With `CCc1cc(C(N)=S)ccn1` [ETHIONAMIDE] as the molecule, how does the MIC [7] read?
Its MIC is 5 µg/mL (≈ 30.1 µM).

How did the MIC [7] turn out when `NNC(=O)c1ccncc1` [ISONIAZID] was run?
The MIC was 0.2 µg/mL (≈ 1.46 µM).

With `NC[C@H]1O[C@H](O[C@H]2[C@H](O)[C@@H](O[C@H]3O[C@H](CO)[C@@H](O)[C@H](N)[C@H]3O)[C@H](N)C[C@@H]2N)[C@H](O)[C@@H](O)[C@@H]1O` [KANAMYCIN] as the molecule, how does the MIC [7] read?
The MIC was 5 µg/mL (≈ 10.3 µM).

How did the MIC (Streptococcus [2]) turn out when `COc1cc2c(ccc3c(C)c(C)ccc32)cc1C(C)C` [MULTICAULIN] was run?
Its MIC is 0.2 µg/mL (≈ 0.718 µM).

And the “inhibition zone (IZ)” value (Staphylococcus aureus [3])?
The value was over 7 mm.

And the MIC (Escherichia coli [12])?
The MIC was 0.7 µg/mL (≈ 2.51 µM).

And the MIC (Proteus mirabilis [13])?
Its MIC is 1.4 µg/mL (≈ 5.03 µM).

And the MIC (Staphylococcus aureus [14])?
Its MIC is 0.2 µg/mL (≈ 0.718 µM).

And the Activity (Klebsiella pneumoniae [4])?
The Activity was “inactive”.

And the Activity (Pseudomonas aeruginosa [5])?
Its Activity is “inactive”.

What about the “inhibition zone (IZ)” value (Escherichia coli [6]) of the same molecule?
Its value is over 7 mm.

What about the MIC [7] of the same molecule?
Its MIC is 5.6 µg/mL (≈ 20.1 µM).

And the “inhibition zone (IZ)” value (Proteus mirabilis [9])?
The value was over 7 mm.

What about the Activity (Enterococcus faecalis [10]) of the same molecule?
Its Activity is “inactive”.

And the “inhibition zone (IZ)” value (Streptococcus [11])?
Its value is over 7 mm.

For `COc1cc2c3c(ccc2c(C)c1C)C=C(C(C)C)C(=O)C3=O` [MULTIORTHOQUINONE], which MIC (Streptococcus [2]) is on record?
The MIC was 0.1 µg/mL (≈ 0.324 µM).

What about the “inhibition zone (IZ)” value (Staphylococcus aureus [3]) of the same molecule?
Its value is over 7 mm.

What about the MIC (Staphylococcus aureus [14]) of the same molecule?
Its MIC is 0.1 µg/mL (≈ 0.324 µM).

What about the Activity (Klebsiella pneumoniae [4]) of the same molecule?
The Activity was “inactive”.

And the “inhibition zone (IZ)” value (Pseudomonas aeruginosa [5])?
Its value is over 7 mm.

What about the Activity (Escherichia coli [6]) of the same molecule?
Its Activity is “inactive”.

What about the MIC [7] of the same molecule?
The MIC was 2 µg/mL (≈ 6.49 µM).

What about the MIC (Enterococcus faecalis [15]) of the same molecule?
Its MIC is 2 µg/mL (≈ 6.49 µM).

What about the MIC (Pseudomonas aeruginosa [8]) of the same molecule?
The MIC was 0.5 µg/mL (≈ 1.62 µM).

And the Activity (Proteus mirabilis [9])?
Its Activity is “inactive”.

And the “inhibition zone (IZ)” value (Enterococcus faecalis [10])?
The value was over 7 mm.

What about the “inhibition zone (IZ)” value (Streptococcus [11]) of the same molecule?
Its value is over 7 mm.

With `CO[C@H]1/C=C/O[C@@]2(C)Oc3c(C)c(O)c4c(O)c(c(/C=N/N5CCN(C)CC5)c(O)c4c3C2=O)NC(=O)/C(C)=C\C=C\[C@H](C)[C@H](O)[C@@H](C)[C@@H](O)[C@@H](C)[C@H](OC(C)=O)[C@@H]1C` [RIFAMPIN] as the molecule, how does the MIC [7] read?
Its MIC is 0.5 µg/mL (≈ 0.608 µM).

What does the source list for `C=C[C@]1(C)C=C2[C@@H](O)C[C@H]3C(C)(C)C(=O)CC[C@]3(C)[C@]2(O)C(=O)C1` [SALVIPIMARONE]?
Activity (Staphylococcus aureus [3]): inactive; MIC (Proteus mirabilis [13]): 3.6 µg/mL (≈ 10.8 µM); Activity (Klebsiella pneumoniae [4]): inactive; Activity (Pseudomonas aeruginosa [5]): inactive; Activity (Escherichia coli [6]): inactive; MIC [7]: 7.3 µg/mL (≈ 22 µM); MIC (Enterococcus faecalis [15]): 3.6 µg/mL (≈ 10.8 µM); inhibition zone (IZ) (Proteus mirabilis [9]): >7 mm; Activity (Enterococcus faecalis [10]): inactive; Activity (Streptococcus [11]): inactive

How did the MIC [7] turn out when `CN[C@@H]1[C@H](O[C@H]2[C@H](O[C@H]3[C@H](O)[C@@H](O)[C@H](N=C(N)N)[C@@H](O)[C@@H]3N=C(N)N)O[C@@H](C)[C@]2(O)C=O)O[C@@H](CO)[C@H](O)[C@H]1O` [STREPTOMYCIN] was run?
The MIC was 2 µg/mL (≈ 3.44 µM).
